Reference: patent US20020183365A1, “Method for treating fibrotic diseases or other indications IIIC” (priority 2000, published 2002)
Counter-ions that a name gives are not always drawn.

How the values were obtained:
[1] = series exploring certain imidazolium compounds; cited from earlier work
Rats = assay: Rat myocardial infarct model (coronary artery ligation), histological examination of hearts; format: in vivo; conditions: daily intraperitoneal 10 mg/kg for 30 days before and 14 days after ligation; placebo 0.16±0.04 g; p=0.04
Experimental: Rats received a daily intraperitoneal dose of 10 mg/kg 3-[2-phenyl-2-oxoethyl]-4,5-dimethyl-thiazolium salt (compound A) (n=14) or placebo (n=15) for 30 days. The animals then underwent a thoracotomy and the left anterior descending coronary artery ligated. The chest was then closed and the animals allowed to recover for 14 days while continuing to be treated with compound A or placebo. The animals were then sacrificed and the hearts removed for histological examination. The weight of the infarcted tissue was 0.16±0.04 g for the placebo treated animals compared to 0.11±0.05 g for the compound A treated animals (p=0.04).

[2] = system: elderly patients with pulse pressures greater than 60 mm Hg; assay: Phase IIa clinical trial; format: in vivo, human
Excerpt: When the heart pumps blood into the vascular system, the ability of the arteries to expand helps to push blood through the body. When arteries become stiff, as they do in the natural process of aging, the ability of the arteries to expand is diminished and also has consequences for the heart. The heart has to work harder to pump the blood into the stiff arteries, and eventually hypertrophies (enlarges in size) to accomplish this. A hypertrophied heart is an inefficient pump, and is one of the disorders that leads to congestive heart failure. […] The potential clinical benefit of this is to lessen the effort that the heart must expend to push blood throughout the body. The effect is also believed to contribute to preventing hypertrophy and subsequent inefficiency of the heart, which inefficiency would contribute to congestive heart failure.
Atherosclerosis is a disease that involves deposition of blood lipids in plaque in the arteries throughout the body. In coronary arteries, accumulation of plaque progressively leads to reduced coronary flow, with occlusion of the arteries causing focal death of cardiac tissue (myocardial infarction, heart attack). If the amount of tissue that dies is large enough, death ensures. […] Reducing local deposits of plaque should eventually lessen the risk of myocardial infarction and death due to heart attacks.
Pulse pressure is the difference between systolic and diastolic blood pressure. In a young human, systolic pressure is typically 120 mm Hg and diastolic pressure is 80 mm Hg, resulting in a pulse pressure of 40 mm Hg. With age, in many individuals pulse pressure increases, largely due to the increase in systolic pressure that results from stiff vessel disease. In individuals with pulse pressure greater than 60 mm Hg there is an increased risk of death from cardiovascular morbidities. […] This decrease in pulse pressure was believed to be due primarily to the effect of the agent on lowering the systolic blood pressure.

dog model for diabetes = assay: Dog model for diabetes, ventricular elasticity; format: in vivo
Excerpt: (§1) Cardiovascular risk correlates more closely with the systolic and the pulse pressure than with the diastolic pressure. In diabetic patients, the cardiovascular risk profile of diabetic patients is strongly correlated to duration of diabetes, glycemic control and blood pressure. Structural matrix proteins contribute to the function of vessels and the heart, and changes in the physical behavior of cardiovascular walls are believed to be important determinants of circulatory function. In elderly individuals, the loss of compliance in the aorta leads to isolated systolic hypertension, which in turn expands the arterial wall and thereby diminishes the dynamic range of elasticity.

[3] = system: rodents, canines and primates; assay: In vivo studies of vascular stiffening
Excerpt: as §1

[4] = system: collagen in cardiovascular tissues; assay: Mass of collagen in cardiovascular tissues after treatment; conditions: in vivo
Excerpt: as §1

Type IV collagen = assay: In situ hybridization studies, Type IV collagen
Excerpt: as §1

TGFbeta = assay: In situ hybridization studies, TGFbeta
Excerpt: as §1

SMILES	glucose lowering effect [1]	weight of the infarcted tissue (Rats) [g]	stiffness of arteries, as measured by the ratio of stroke volume (ml) to pulse pressure (mm Hg) ([2]; Phase IIa clinical trial)	amount of circulating triglycerides (lipids) ([2]; Phase IIa trial)	pulse pressure ([2]; Phase IIa trial, elderly patients with pulse pressures greater than 60 mm Hg, statistically significant)	end diastolic pressure, indicator of ventricular elasticity (dog model for diabetes)	end diastolic volume, indicator of ventricular elasticity (dog model for diabetes)	vascular stiffening [3]	mass of collagen in cardiovascular tissues [4]	expression of Type IV collagen (Type IV collagen)	expression of TGFbeta (TGFbeta)
Cc1ccc(C(=O)C[n+]2ccccc2)cc1.[Cl-] [1-[2-(4-methylphenyl)-2-oxoethyl]-pyridinium chloride]	inactive	–	–	–	–	–	–	–	–	–	–
Cc1sc[n+](CC(=O)c2ccccc2)c1C [compound A, 3-[2-phenyl-2-oxoethyl]-4,5-dimethyl-thiazolium salt]	–	0.11 ± 0.05	showed an ability to reverse the stiffness of arteries	increased the amount of circulating triglycerides	reduced pulse pressure	returned to a value at about the mid-point between the disease impaired value and the value for control dogs	returned to a value at about the mid-point between the disease impaired value and the value for control dogs	substantially ameliorating vascular stiffening	reduction in the mass of collagen	reduces the expression	reduces the expression
